The values below come from patent US7704995B2 (Exelixis, Inc., priority 2003, dated 2010).

The structures appear in SMILES notation.

In the assay the target is T1, Chk1 (Homo sapiens, UniProt O14757).
T1 construct: purchased Upstate Biotechnology
T1 sequence (O14757 1-476): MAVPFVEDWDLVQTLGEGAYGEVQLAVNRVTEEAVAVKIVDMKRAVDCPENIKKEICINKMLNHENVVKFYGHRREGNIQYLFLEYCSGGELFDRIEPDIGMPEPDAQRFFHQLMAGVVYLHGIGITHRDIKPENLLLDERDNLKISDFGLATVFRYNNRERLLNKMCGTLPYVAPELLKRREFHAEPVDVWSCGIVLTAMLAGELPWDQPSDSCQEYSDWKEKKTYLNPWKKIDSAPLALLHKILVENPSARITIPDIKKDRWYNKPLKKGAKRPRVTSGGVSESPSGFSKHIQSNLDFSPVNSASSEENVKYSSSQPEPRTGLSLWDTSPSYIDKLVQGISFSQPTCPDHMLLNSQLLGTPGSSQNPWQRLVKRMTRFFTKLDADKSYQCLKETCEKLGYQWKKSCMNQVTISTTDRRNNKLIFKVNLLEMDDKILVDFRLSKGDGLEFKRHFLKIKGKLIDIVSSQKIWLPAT
As to the kind of experiment: Chk1 kinase assay: incorporation of γ-33P ATP into immobilized myelin basic protein. Type of assay: biochemical. Conditions: Table 11, Chk1 only; class symbols A-D; read-out: Chk1 IC50. A digest of the protocol: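 Radiometric filter-free format: Chk1 10 nM, 10 μM ATP; Chk2 20 nM, 30 μM ATP; γ-33P ATP tracer; immobilized MBP substrate; Hepes pH 7.6, 10 mM MgCl2, 1 mM DTT; 1 h RT; 1% DMSO. Scintillation counting of washed plates. IC50/Ki from curve fit.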
In general, IC50 refers to the concentration needed to halve the response being measured. For the compound `Nc1ncc(-c2cccc(CNC(=O)c3ccc(-c4ccc([N+](=O)[O-])cc4)o3)c2)nc1C(=O)N[C@H]1CCCNC1` [Example 986, 3-Amino-6-[3-({[5-(4-nitro-phenyl)-furan-2-carbonyl]-amino}-methyl)-phenyl]-pyrazine-2-carboxylic acid (3S)-piperidin-3-ylamide], the IC50 was less than 50 nM. As for `Nc1ncc(-c2cccc(CNC(=O)c3ncccc3O)c2)nc1C(=O)N[C@H]1CCCNC1` [Example 987, 3-amino-6-[3-({[(3-hydroxypyridin-2-yl)carbonyl]amino}methyl)phenyl]-N-[(3S)-piperidin-3-yl]pyrazine-2-carboxamide], the figure is less than 50 nM. The result for `Nc1ncc(-c2cccc(CNC(=O)COc3ccc(OC(F)(F)F)cc3)c2)nc1C(=O)N[C@H]1CCCNC1` [Example 988, 3-amino-N-[(3S)-piperidin-3-yl]-6-[3-({[({4-[(trifluoromethyl)oxy]phenyl}oxy)acetyl]amino}methyl)phenyl]pyrazine-2-carboxamide] reads less than 50 nM; that for `Cc1cc(C(=O)NCc2cccc(-c3cnc(N)c(C(=O)N[C@H]4CCCNC4)n3)c2)no1` [Example 989, 3-amino-6-[3-({[(5-methylisoxazol-3-yl)carbonyl]amino}methyl)phenyl]-N-[(3S)-piperidin-3-yl]pyrazine-2-carboxamide], less than 50 nM. As for `Nc1ncc(-c2cccc(CNC(=O)c3ccno3)c2)nc1C(=O)N[C@H]1CCCNC1` [Example 990, 3-amino-6-(3-{[(isoxazol-5-ylcarbonyl)amino]methyl}phenyl)-N-[(3S)-piperidin-3-yl]pyrazine-2-carboxamide], the figure is less than 50 nM; as for `Cc1nnsc1C(=O)NCc1cccc(-c2cnc(N)c(C(=O)N[C@H]3CCCNC3)n2)c1` [Example 991, 3-amino-6-[3-({[(4-methyl-1,2,3-thiadiazol-5-yl)carbonyl]amino}methyl)phenyl]-N-[(3S)-piperidin-3-yl]pyrazine-2-carboxamide], less than 50 nM; as for `Nc1ncc(-c2cccc(CNC(=O)c3cc(Cl)sc3Cl)c2)nc1C(=O)N[C@H]1CCCNC1` [Example 992, 3-amino-6-[3-({[(2,5-dichloro-3-thienyl)carbonyl]amino}methyl)phenyl]-N-[(3S)-piperidin-3-yl]pyrazine-2-carboxamide], less than 50 nM.

On to `Cc1ccc(Cl)cc1CNC(=O)c1cccc(-c2cnc(N)c(C(=O)N[C@H]3CCCNC3)n2)c1` [Example 993, 3-amino-6-[3-({[(5-chloro-2-methylphenyl)methyl]amino}carbonyl)phenyl]-N-[(3S)-piperidin-3-yl]pyrazine-2-carboxamide], for which the IC50 is less than 50 nM. As for `Nc1ncc(-c2cccc(C(=O)NCc3c(F)cccc3Cl)c2)nc1C(=O)N[C@H]1CCCNC1` [Example 995, 3-amino-6-[3-({[(2-chloro-6-fluorophenyl)methyl]amino}carbonyl)phenyl]-N-[(3S)-piperidin-3-yl]pyrazine-2-carboxamide], the figure is less than 50 nM; as for `Nc1ncc(-c2cccc(C(=O)NCc3ccc(Cl)cc3F)c2)nc1C(=O)N[C@H]1CCCCNC1` [Example 996, 3-amino-N-[(3S)-azepan-3-yl]-6-[3-({[(4-chloro-2-fluorophenyl)methyl]amino}carbonyl)phenyl]pyrazine-2-carboxamide], less than 50 nM. The result for `Nc1ncc(-c2cccc(C(=O)NCc3cccc(Cl)c3F)c2)nc1C(=O)N[C@H]1CCCNC1` [Example 997, 3-amino-6-[3-({[(3-chloro-2-fluorophenyl)methyl]amino}carbonyl)phenyl]-N-[(3S)-piperidin-3-yl]pyrazine-2-carboxamide] reads less than 50 nM; that for `Nc1ncc(-c2cccc(C(=O)NCc3cc(C(F)(F)F)ccc3F)c2)nc1C(=O)N[C@H]1CCCNC1` [Example 998, 3-amino-6-{3-[({[2-fluoro-5-(trifluoromethyl)phenyl]methyl}amino)carbonyl]phenyl}-N-[(3S)-piperidin-3-yl]pyrazine-2-carboxamide], less than 50 nM; that for `Nc1ncc(-c2cccc(CNCc3ccc(F)cc3F)c2)nc1C(=O)N[C@H]1CCCNC1` [Example 999, 3-amino-6-[3-({[(2,4-difluorophenyl)methyl]amino}methyl)phenyl]-N-[(3S)-piperidin-3-yl]pyrazine-2-carboxamide], less than 50 nM. The result for `Nc1ncc(-c2cccc(C(=O)NCc3c(F)ccc(Cl)c3F)c2)nc1C(=O)N[C@H]1CCCNC1` [Example 1000, 3-amino-6-[3-({[(3-chloro-2,6-difluorophenyl)methyl]amino}carbonyl)phenyl]-N-[(3S)-piperidin-3-yl]pyrazine-2-carboxamide] reads less than 50 nM. Regarding `Nc1ncc(-c2cccc(C(=O)NCc3ccc(F)cc3Cl)c2)nc1C(=O)N[C@H]1CCCNC1` [Example 1002, 3-amino-6-[3-({[(2-chloro-4-fluorophenyl)methyl]amino}carbonyl)phenyl]-N-[(3S)-piperidin-3-yl]pyrazine-2-carboxamide], the IC50 is less than 50 nM. The result for `Nc1ncc(-c2cccc(C(=O)NCc3cccc(Cl)c3Cl)c2)nc1C(=O)N[C@H]1CCCNC1` [Example 1003, 3-amino-6-[3-({[(2,3-dichlorophenyl)methyl]amino}carbonyl)phenyl]-N-[(3S)-piperidin-3-yl]pyrazine-2-carboxamide] reads less than 50 nM; that for `Nc1ncc(-c2cccc(C(=O)NCc3c(F)ccc(F)c3F)c2)nc1C(=O)N[C@H]1CCCNC1` [Example 1004, 3-amino-N-[(3S)-piperidin-3-yl]-6-[3-({[(2,3,6-trifluorophenyl)methyl]amino}carbonyl)phenyl]pyrazine-2-carboxamide], less than 50 nM. Regarding `Nc1ncc(-c2cccc(C(=O)NCc3ccc(Cl)c(C(F)(F)F)c3)c2)nc1C(=O)N[C@H]1CCCNC1` [Example 1005, 3-amino-6-{3-[({[4-chloro-3-(trifluoromethyl)phenyl]methyl}amino)carbonyl]phenyl}-N-[(3S)-piperidin-3-yl]pyrazine-2-carboxamide], the IC50 was less than 50 nM. As for `Nc1ncc(-c2cccc(C(=O)NCc3cccc(F)c3F)c2)nc1C(=O)N[C@H]1CCCCNC1` [Example 1007, 3-amino-N-[(3S)-azepan-3-yl]-6-[3-({[(2,3-difluorophenyl)methyl]amino}carbonyl)phenyl]pyrazine-2-carboxamide], the figure is less than 50 nM; as for `Nc1ncc(-c2cccc(C(=O)NCc3ccc(F)c(F)c3)c2)nc1C(=O)N[C@H]1CCCCNC1` [Example 1008, 3-amino-N-[(3S)-azepan-3-yl]-6-[3-({[(3,4-difluorophenyl)methyl]amino}carbonyl)phenyl]pyrazine-2-carboxamide], less than 50 nM. The result for `Nc1ncc(-c2cccc(C(=O)NCc3cc(F)cc(F)c3)c2)nc1C(=O)N[C@H]1CCCCNC1` [Example 1009, 3-amino-N-[(3S)-azepan-3-yl]-6-[3-({[(3,5-difluorophenyl)methyl]amino}carbonyl)phenyl]pyrazine-2-carboxamide] reads less than 50 nM; that for `Nc1ncc(-c2cccc(C(=O)NCc3c(F)cccc3F)c2)nc1C(=O)N[C@H]1CCCNC1` [Example 1010, 3-amino-6-[3-({[(2,6-difluorophenyl)methyl]amino}carbonyl)phenyl]-N-[(3S)-piperidin-3-yl]pyrazine-2-carboxamide], less than 50 nM; that for `Nc1ncc(-c2cccc(C(=O)NCc3ccc(F)c(F)c3)c2)nc1C(=O)N[C@H]1CCCNC1` [Example 1011, 3-amino-6-[3-({[(3,4-difluorophenyl)methyl]amino}carbonyl)phenyl]-N-[(3S)-piperidin-3-yl]pyrazine-2-carboxamide], less than 50 nM. As for `Cc1ccc(Cl)c(CNC(=O)c2cccc(-c3cnc(N)c(C(=O)N[C@H]4CCCNC4)n3)c2)c1F` [Example 1012, 3-amino-6-[3-({[(6-chloro-2-fluoro-3-methylphenyl)methyl]amino}carbonyl)phenyl]-N-[(3S)-piperidin-3-yl]pyrazine-2-carboxamide], the figure is less than 50 nM; as for `Cc1ccc(F)c(CNC(=O)c2cccc(-c3cnc(N)c(C(=O)N[C@H]4CCCNC4)n3)c2)c1Cl` [Example 1013, 3-amino-6-[3-({[(2-chloro-6-fluoro-3-methylphenyl)methyl]amino}carbonyl)phenyl]-N-[(3S)-piperidin-3-yl]pyrazine-2-carboxamide], less than 50 nM. Regarding `Nc1ncc(-c2cccc(C(=O)NCc3c(F)ccc(F)c3Cl)c2)nc1C(=O)N[C@H]1CCCNC1` [Example 1014, 3-amino-6-[3-({[(2-chloro-3,6-difluorophenyl)methyl]amino}carbonyl)phenyl]-N-[(3S)-piperidin-3-yl]pyrazine-2-carboxamide], the IC50 was less than 50 nM. Consider `Nc1ncc(-c2cccc(C(=O)NCc3cc(Cl)ccc3Cl)c2)nc1C(=O)N[C@H]1CCCNC1` [Example 1015, 3-amino-6-[3-({[(2,5-dichlorophenyl)methyl]amino}carbonyl)phenyl]-N-[(3S)-piperidin-3-yl]pyrazine-2-carboxamide], for which the IC50 is less than 50 nM.

On to `Nc1ncc(-c2cccc(C(=O)NCc3ccc(F)c(F)c3F)c2)nc1C(=O)N[C@H]1CCCNC1` [Example 1016, 3-amino-N-[(3S)-piperidin-3-yl]-6-[3-({[(2,3,4-trifluorophenyl)methyl]amino}carbonyl)phenyl]pyrazine-2-carboxamide], for which the IC50 is less than 50 nM.
